Data as given in PubChem BioAssay AID330 (DTP/NCI, 2004).
Several values for one entry are separate records, joined by “and”; a condition that tells them apart may be missing. Identical values can stand only once. Inconclusive results and toxic doses are left out. Bridge positions count the residues as written; N and C are the ends. Square brackets hold non-standard residues; d marks the D form. Peptide text beside a SMILES is read from it. I, II: the chains in the order shown. * marks the point of attachment. Quinoxaline2carbonyl = O=C(c1cnc2ccccc2n1)*; NMeV = CN[CH](C(=O)O)C(C)C; NMeC = CN[CH](CS)C(=O)O

Tested on: P388 leukemia ip, CD2F1 mice, survival T/C
Assay: NCI In Vivo Anticancer Drug Screen. Data for tumor model P388 Leukemia (intraperitoneal) in CD2F1 (CDF1) mice
Details: endpoint: median survival time, higher = longer survival
Method in brief: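 Mice carrying the transplanted tumor received test compound or vehicle. Survival was recorded in each group, and the value is the treated-group measurement divided by that of the vehicle-treated control group.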

[1] = dose: 100.0 mg/kg/injection, schedule: Q01DX009 (ip), vehicle: saline with Tween-80
[2] = dose: 25.0 mg/kg/injection, schedule: Q04DX002 (ip), vehicle: saline with Tween-80
[3] = dose: 50.0 mg/kg/injection, schedule: Q01DX005 (ip), vehicle: saline with Tween-80
[4] = dose: 100.0 mg/kg/injection, schedule: Q01DX005 (ip), vehicle: saline with Tween-80
[5] = dose: 200.0 mg/kg/injection, schedule: Q01DX005 (ip), vehicle: saline with Tween-80
[6] = dose: 50.0 mg/kg/injection, schedule: Q01DX009 (ip), vehicle: saline with Tween-80
[7] = dose: 50.0 mg/kg/injection, schedule: Q01DX005 (ip), vehicle: Klucel (hydroxypropylcellulose) (HPC)
[8] = dose: 100.0 mg/kg/injection, schedule: Q01DX005 (ip), vehicle: Klucel (hydroxypropylcellulose) (HPC)

CCOC(=O)C(C(=O)OCC)C1CCS(=O)(=O)C1 (stereo not given)
T/C [1]: 109 % of control | T/C (dose: 200.0 mg/kg/injection, schedule: Q01DX009 (ip), vehicle: saline with Tween-80): 104 % of control | T/C (dose: 400.0 mg/kg/injection, schedule: Q01DX009 (ip), vehicle: saline with Tween-80): 104 % of control

CN(C)CCC[N+](C)(C)Cc1ccc(C[N+](C)(C)CCC[N+](C)(C)Cc2ccc(CCl)cc2)cc1
T/C (dose: 12.5 mg/kg/injection, schedule: Q01DX009 (ip), vehicle: saline): 106 % of control | T/C (dose: 25.0 mg/kg/injection, schedule: Q01DX009 (ip), vehicle: saline): 92 % of control

COc1cc[n+](CC(=O)c2c[nH]c3ccccc23)cc1
T/C (dose: 50.0 mg/kg/injection, schedule: Q01DX009 (ip), vehicle: Klucel (hydroxypropylcellulose) (HPC)): 103 % of control | T/C (dose: 100.0 mg/kg/injection, schedule: Q01DX009 (ip), vehicle: Klucel (hydroxypropylcellulose) (HPC)): 109 % of control

[Cl][Pt+2][Cl].[NH-]C1CCCC1[NH-] (stereo not given)
T/C (dose: 3.13 mg/kg/injection, schedule: Q04DX002 (ip), vehicle: saline with Tween-80): 158 % of control | T/C (dose: 6.25 mg/kg/injection, schedule: Q04DX002 (ip), vehicle: saline with Tween-80): 198 % of control and 190 % of control and 171 % of control | T/C (dose: 12.5 mg/kg/injection, schedule: Q04DX002 (ip), vehicle: saline with Tween-80): 210 % of control and 197 % of control and 222 % of control | T/C [2]: 235 % of control and 112 % of control

O=[N+]([O-])c1ccc(/C=C/S(=O)(=O)/C=C\c2ccccc2)cc1
T/C [3]: 101 % of control | T/C [4]: 97 % of control | T/C [5]: 88 % of control

CC1(C)CCCc2c(-c3ccccc3)cc3c4ccccc4cc[n+]3c21
T/C [6]: 89 % of control | T/C [1]: 88 % of control

Clc1nccc2c1ncn2[Te]n1cnc2c(Cl)nccc21
T/C (dose: 12.5 mg/kg/injection, schedule: Q04DX002 (ip), vehicle: saline): 105 % of control | T/C (dose: 25.0 mg/kg/injection, schedule: Q04DX002 (ip), vehicle: saline): 103 % of control

O=C1c2cccc3cccc(c23)C(=O)N1c1nccs1
T/C [3]: 100 % of control | T/C [4]: 94 % of control | T/C [5]: 90 % of control

Cc1cccc(N2C(=O)CSC2=S)c1
T/C (dose: 12.5 mg/kg/injection, schedule: Q01DX009 (ip), vehicle: saline with Tween-80): 109 % of control | T/C (dose: 25.0 mg/kg/injection, schedule: Q01DX009 (ip), vehicle: saline with Tween-80): 100 % of control | T/C [6]: 103 % of control

CC1(C)N=C(N)N=C(N)N1c1cccc(CCCCc2cccc(S(=O)(=O)F)c2)c1
T/C (dose: 3.9 mg/kg/injection, schedule: Q04DX003 (ip), vehicle: saline with Tween-80): 122 % of control | T/C (dose: 25.0 mg/kg/injection, schedule: Q04DX003 (ip), vehicle: saline with Tween-80): 95 % of control | T/C (dose: 50.0 mg/kg/injection, schedule: Q04DX003 (ip), vehicle: saline with Tween-80): 90 % of control

CC1=NN(C(=O)c2ccccc2)C(C)(C)C1
T/C [7]: 113 % of control | T/C [8]: 111 % of control | T/C (dose: 200.0 mg/kg/injection, schedule: Q01DX005 (ip), vehicle: Klucel (hydroxypropylcellulose) (HPC)): 97 % of control

O=C1OC2(CCCCC2)Cc2oc3ccccc3c(=O)c21
T/C (dose: 25.0 mg/kg/injection, schedule: Q01DX005 (ip), vehicle: Klucel (hydroxypropylcellulose) (HPC)): 98 % of control | T/C [7]: 100 % of control | T/C [8]: 90 % of control

O=C1C=CC(=O)N1c1ccc(Cl)cc1
T/C (dose: 1.0 mg/kg/injection, schedule: Q01DX009 (ip), vehicle: Klucel (hydroxypropylcellulose) (HPC)): 107 % of control | T/C (dose: 1.25 mg/kg/injection, schedule: Q01DX009 (ip), vehicle: Klucel (hydroxypropylcellulose) (HPC)): 93 % of control | T/C (dose: 2.0 mg/kg/injection, schedule: Q01DX009 (ip), vehicle: Klucel (hydroxypropylcellulose) (HPC)): 104 % of control | T/C (dose: 2.5 mg/kg/injection, schedule: Q01DX009 (ip), vehicle: Klucel (hydroxypropylcellulose) (HPC)): 96 % of control | T/C (dose: 4.0 mg/kg/injection, schedule: Q01DX009 (ip), vehicle: Klucel (hydroxypropylcellulose) (HPC)): 104 % of control | T/C (dose: 5.0 mg/kg/injection, schedule: Q01DX009 (ip), vehicle: Klucel (hydroxypropylcellulose) (HPC)): 89 % of control | T/C (dose: 8.0 mg/kg/injection, schedule: Q01DX009 (ip), vehicle: Klucel (hydroxypropylcellulose) (HPC)): 102 % of control | T/C (dose: 10.0 mg/kg/injection, schedule: Q01DX009 (ip), vehicle: Klucel (hydroxypropylcellulose) (HPC)): 93 % of control

CC1NC(=O)C(NC(=O)c2cnc3ccccc3n2)COC(=O)C(C(C)C)N(C)C(=O)C2CSSCC(C(=O)N(C)C(C(C)C)C(=O)OCC(NC(=O)c3cnc4ccccc4n3)C(=O)NC(C)C(=O)N2C)N(C)C1=O (stereo not given) (I: Quinoxaline2carbonyl-SA[NMeC][NMeV] / II: Quinoxaline2carbonyl-SA[NMeC][NMeV]; ester I:1-II:C, I:C-II:1; disulfide I:3-II:3; configuration not given here)
T/C (dose: 25.0 micrograms/kg/injection, schedule: Q01DX009 (ip), vehicle: water): 150 % of control | T/C (dose: 50.0 micrograms/kg/injection, schedule: Q01DX009 (ip), vehicle: water): 153 % of control | T/C (dose: 100.0 micrograms/kg/injection, schedule: Q01DX009 (ip), vehicle: water): 185 % of control

[N-]=[N+]=CC(=O)NCC(=O)NN=C(CO)CO
T/C (dose: 180.0 mg/kg/injection, schedule: Q01DX009 (ip), vehicle: water): 154 % of control | T/C (dose: 270.0 mg/kg/injection, schedule: Q01DX009 (ip), vehicle: water): 172 % of control | T/C (dose: 400.0 mg/kg/injection, schedule: Q01DX009 (ip), vehicle: water): 172 % of control | T/C (dose: 600.0 mg/kg/injection, schedule: Q01DX009 (ip), vehicle: water): 181 % of control

CC(CCC(=O)O)(c1ccc(OC(=O)Nc2ccc(Br)cc2)cc1)c1ccc(OC(=O)Nc2ccc(Br)cc2)cc1
T/C [3]: 102 % of control | T/C [4]: 97 % of control | T/C [5]: 100 % of control

COc1ccc(CC(O)c2cc(OC)c(OC)c(OC)c2)cc1O (stereo not given)
T/C (dose: 2.5 mg/kg/injection, schedule: Q01DX009 (ip), vehicle: saline + alcohol): 108 % of control | T/C (dose: 5.0 mg/kg/injection, schedule: Q01DX009 (ip), vehicle: saline + alcohol): 118 % of control | T/C (dose: 10.0 mg/kg/injection, schedule: Q01DX009 (ip), vehicle: saline + alcohol): 114 % of control | T/C (dose: 20.0 mg/kg/injection, schedule: Q01DX009 (ip), vehicle: saline + alcohol): 101 % of control | T/C (dose: 22.5 mg/kg/injection, schedule: Q01DX009 (ip), vehicle: saline + Tween-80 + alcohol): 108 % of control | T/C (dose: 45.0 mg/kg/injection, schedule: Q01DX009 (ip), vehicle: saline + Tween-80 + alcohol): 114 % of control | T/C (dose: 90.0 mg/kg/injection, schedule: Q01DX009 (ip), vehicle: saline + Tween-80 + alcohol): 107 % of control | T/C (dose: 180.0 mg/kg/injection, schedule: Q01DX009 (ip), vehicle: saline + Tween-80 + alcohol): 123 % of control

O=C1c2ccccc2C(=O)N1Cc1cccc(I)c1
T/C (dose: 60.0 mg/kg/injection, schedule: Q01DX005 (ip), vehicle: Klucel (hydroxypropylcellulose) (HPC)): 97 % of control | T/C (dose: 120.0 mg/kg/injection, schedule: Q01DX005 (ip), vehicle: Klucel (hydroxypropylcellulose) (HPC)): 94 % of control

OC(c1cc(F)c(F)c(F)c1F)(C(F)(F)F)C(F)(F)F
T/C (dose: 100.0 mg/kg/injection, schedule: Q04DX003 (ip), vehicle: suspension in saline): 98 % of control | T/C (dose: 200.0 mg/kg/injection, schedule: Q04DX003 (ip), vehicle: suspension in saline): 104 % of control | T/C (dose: 400.0 mg/kg/injection, schedule: Q04DX003 (ip), vehicle: suspension in saline): 101 % of control

COc1ccc(OC/C(C)=N\NS(=O)(=O)c2cc(Cl)c(Cl)cc2Cl)cc1
T/C (dose: 100.0 mg/kg/injection, schedule: Q01DX001 (ip), vehicle: gum acacia): 96 % of control | T/C (dose: 200.0 mg/kg/injection, schedule: Q01DX001 (ip), vehicle: gum acacia): 93 % of control | T/C (dose: 400.0 mg/kg/injection, schedule: Q01DX001 (ip), vehicle: gum acacia): 95 % of control

O/N=C/c1cnns1
T/C [3]: 105 % of control | T/C [4]: 100 % of control | T/C [5]: 100 % of control

Cc1nc2[nH]c(=O)ccc2c(C)c1N
T/C [2]: 103 % of control | T/C (dose: 50.0 mg/kg/injection, schedule: Q04DX002 (ip), vehicle: saline with Tween-80): 110 % of control | T/C (dose: 100.0 mg/kg/injection, schedule: Q04DX002 (ip), vehicle: saline with Tween-80): 100 % of control

N#CC(Br)(Br)C#N
T/C (dose: 3.13 mg/kg/injection, schedule: Q01DX009 (ip), vehicle: Klucel (hydroxypropylcellulose) (HPC)): 117 % of control | T/C (dose: 6.25 mg/kg/injection, schedule: Q01DX009 (ip), vehicle: Klucel (hydroxypropylcellulose) (HPC)): 114 % of control
